Measurements reported in patent publication US20240041042A1, “1-(PYRIDYL)-5-AZINYLPYRAZOLE DERIVATIVES, AND THEIR USE FOR CONTROL OF UNDESIRED PLANT GROWTH” (Bayer Aktiengesellschaft, priority 2020, published 2024).
Like-named read-outs stand apart in the source and are kept apart here.

Key:
Assay type in all cases: in vivo
[1] = system: Echinochloa crus-galli (ECHCG); experiment: Post-emergence herbicidal action against ECHCG
Summary of the method: (§1)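 Doses of 320 g/ha or lower, suffixes a, b and c marking different dosages, were applied post-emergence at the one-leaf stage in 600 l/ha water with 0.5% additive. Damage was assessed visually after about 3 weeks in the greenhouse.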

Viola tricolor (VIOTR) = experiment: Post-emergence herbicidal action against VIOTR
Summary of the method: as §1

[2] = system: Triticum aestivum (TRZAS); conditions: crop plant compatibility, effect vs untreated controls
Summary of the method: (§2)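 One-leaf-stage crops (2–3 wk post-sowing, sandy loam, greenhouse) sprayed on green parts; 0.5% additive, 600 l/ha water. Rated by eye ~3 wk later, % vs untreated; suffixes a/b/c mark different dosages.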

Oryza sativa (ORYSA) = conditions: crop plant compatibility
Summary of the method: as §2

Zea mays (ZEAMX) = conditions: for Post-emergence action against ZEAMX in % (crop plant compatibility): 20 g/ha, effect in comparison to untreated controls; for Post-emergence action against ZEAMX in %: crop plant compatibility, 80 g/ha, effect vs untreated controls
Summary of the method: as §2

[3] = system: Matricaria inodora (MATIN); experiment: Post-emergence herbicidal action against MATIN
Summary of the method: as §1

Setaria viridis (SETVI) = experiment: Post-emergence herbicidal action against SETVI
Summary of the method: as §1

[4] = system: Amaranthus retroflexus (AMARE); experiment: Post-emergence herbicidal action against AMARE
Summary of the method: as §1

[5] = system: Pharbitis purpurea (PHBPU); experiment: Post-emergence herbicidal action against PHBPU
Summary of the method: as §1

[6] = system: Alopecurus myosuroides (ALOMY); experiment: Post-emergence herbicidal action against ALOMY; conditions: visual rating about 3 weeks after treatment vs untreated controls (100% = plants have died, 0% = like control plants)
Summary of the method: as §1

[7] = system: Digitaria sanguinalis (DIGSA); experiment: Post-emergence herbicidal action against DIGSA; conditions: visual rating about 3 weeks after treatment
Summary of the method: as §1

[8] = system: Polygonum convolvulus (POLCO); experiment: Post-emergence herbicidal action against POLCO
Summary of the method: as §1

[9] = system: Verconica persica (VERPE); experiment: Post-emergence herbicidal action against VERPE
Summary of the method: as §1

Avena fatua (AVEFA) = experiment: Post-emergence herbicidal action against AVEFA; conditions: 320 g/ha, visual rating about 3 weeks after treatment
Summary of the method: as §1

[10] = system: Abutilon theophrasti (ABUTH); experiment: Post-emergence herbicidal action against ABUTH; conditions: 320 g/ha, visual rating about 3 weeks after treatment vs untreated controls (100% = plants have died, 0% = like control plants)
Summary of the method: as §1

Lolium rigidum (LOLRI) = experiment: Post-emergence herbicidal action against LOLRI
Summary of the method: as §1

[11] = 20 g/ha, effect vs untreated controls
[12] = 80 g/ha, effect in comparison to untreated controls
[13] = 320 g/ha, effect in comparison to untreated controls
[14] = 320 g/ha, visual rating about 3 weeks after treatment

SMILES	Post-emergence action against ECHCG in % ([1]; dosage 320 g/ha) [%]	Post-emergence action against VIOTR in % (Viola tricolor (VIOTR); 80 g/ha) [%]	Post-emergence action against VIOTR in % (Viola tricolor (VIOTR); 320 g/ha) [%]	Post-emergence action against TRZAS in % ([2]; 20 g/ha) [%]	Post-emergence action against ORYSA in % (Oryza sativa (ORYSA); [11]) [%]	Post-emergence action against ORYSA in % (Oryza sativa (ORYSA); [12]) [%]	Post-emergence action against ZEAMX in % (crop plant compatibility) (Zea mays (ZEAMX)) [%]	Post-emergence action against MATIN in % ([3]; dosage 320 g/ha) [%]	Post-emergence action against SETVI in % (Setaria viridis (SETVI); dosage 320 g/ha) [%]	Post-emergence action against AMARE in % [4, 14] [%]	Post-emergence action against PHBPU in % ([5]; dosage 320 g/ha) [%]	Post-emergence action against ALOMY in % ([6]; 320 g/ha) [%]	Post-emergence action against DIGSA in % ([7]; 320 g/ha) [%]	Post-emergence action against POLCO in % ([8]; dosage 320 g/ha) [%]	Post-emergence action against VERPE in % ([9]; 320 g/ha, VERPE) [%]	Post-emergence action against VERPE in % ([9]; dosage 80 g/ha) [%]	Post-emergence action against AVEFA in % (Avena fatua (AVEFA)) [%]	Post-emergence action against ECHCG in % ([1]; dosage 80 g/ha) [%]	Post-emergence action against ZEAMX in % (Zea mays (ZEAMX)) [%]	Post-emergence action against LOLRI in % (Lolium rigidum (LOLRI); dosage 320 g/ha) [%]	other results
Cc1ncccc1-n1nc(OCC(=O)O)c(Cl)c1-c1cncc(F)c1 [II-42]	90	80	90	0	0	0	20	80	90	90	90	90	80	80	90	80	90				Post-emergence action against TRZAS in % ([2]; 80 g/ha): 20%; Post-emergence action against ORYSA in % (Oryza sativa (ORYSA); [13]): 0%; Post-emergence action against ALOMY in % ([6]; 80 g/ha): 80%
O=C(COc1nn(-c2ncccc2F)c(-c2ccc(F)nc2)c1C1CC1)OCc1ccccc1 [Example I-287]	90	80	90	20	0	20	10	80	90	80	80	90	80		80	80	90	90	20	90	Post-emergence action against ABUTH in % [10]: 90%; Post-emergence action against LOLRI in % (Lolium rigidum (LOLRI); dosage 80 g/ha): 90%; Post-emergence action against SETVI in % (Setaria viridis (SETVI); dosage 80 g/ha): 90%; Post-emergence action against AMARE in % ([4]; 80 g/ha, visual rating about 3 weeks after treatment vs untreated controls (100% = plants have died, 0% = like control plants)): 80%; Post-emergence action against DIGSA in % ([7]; 80 g/ha): 80%
O=C(COc1nn(-c2ncccc2F)c(-c2ccc(F)nc2)c1C1CC1)OCC1CCCC1 [Example I-251]	90		90	10	10		20	90	90	90		80	90		90	80	90	80	20	90	Post-emergence action against LOLRI in % (Lolium rigidum (LOLRI); dosage 80 g/ha): 90%; Post-emergence action against DIGSA in % ([7]; 80 g/ha): 80%
O=C(O)COc1nn(-c2ccccn2)c(-c2ccc(F)nc2)c1Cl [Example I-266]	90	80	90	20	20			90	80	90	90	90	90	90	90	80		80		90	Post-emergence action against MATIN in % ([3]; dosage 80 g/ha): 80%; Post-emergence action against PHBPU in % ([5]; dosage 80 g/ha): 80%; Post-emergence action against POLCO in % ([8]; dosage 80 g/ha): 80%
COC(=O)CCOC(=O)COc1nn(-c2cccnc2C)c(-c2cncc(F)c2)c1Br [II-41]	90	80	90	0	0	0	0	80	90	80	90	90	80		90	90	90		0		Post-emergence action against TRZAS in % ([2]; 80 g/ha): 0%; Post-emergence action against ORYSA in % (Oryza sativa (ORYSA); [13]): 0%; Post-emergence action against ABUTH in % [10]: 80%; Post-emergence action against PHBPU in % ([5]; dosage 80 g/ha): 80%
O=C(O)COc1nn(-c2ncccc2F)c(-c2cncc(F)c2)c1Cl [Example I-169]	90		80	0	0	10	10	90	80		90		90	80	90	80	80	80	10	80	Post-emergence action against MATIN in % ([3]; dosage 80 g/ha): 80%; Post-emergence action against PHBPU in % ([5]; dosage 80 g/ha): 80%; Post-emergence action against POLCO in % ([8]; dosage 80 g/ha): 80%
N#CCOC(=O)COc1nn(-c2ncccc2F)c(-c2ccc(F)nc2)c1C1CC1 [Example I-294]	90	90	90	10	10		20	90	90	80		90	90		90	90	90	80		90	Post-emergence action against ABUTH in % [10]: 80%; Post-emergence action against SETVI in % (Setaria viridis (SETVI); dosage 80 g/ha): 90%; Post-emergence action against DIGSA in % ([7]; 80 g/ha): 80%
